Earlier results as cited in US20260265214A1, “NOVEL DERIVATIVES OF GLYCEROL” (SYMRISE AG, priority 2023, published 2026).

Settings: in 28 days

readily biodegradable: 85%
Structure (SMILES): CCCCCC1C(=O)CCC1CC(=O)OC (stereo not shown) [methyl dihydrojasmonate, methyl 2-(3′-oxo-2′-pentylcyclopentyl)acetate]
